16 compounds from ChEMBL document CHEMBL3822388, “In vivo phenotypic drug discovery: applying a behavioral assay to the discovery and optimization of novel antipsychotic agents” (Medchemcomm, 2016) can be followed below.

Calls of active or inactive are those of the source. The rule behind the calls is not given here. Some results are limits rather than exact numbers.

Data set [1] deals with Mus musculus. Description: Antipsychotic activity in ip dosed mouse administered 15 mins prior to testing by SmartCube automated system based method. It counts as functional. The note with it: for minimal effective dose: Mus musculus, ip, read-out: MED.
Data set [2] relates to Mus musculus. In words: Antipsychotic activity in mouse at 30 mg/kg, ip administered 15 mins prior to testing by SmartCube automated system based method relative to standard compound. Format: functional.
Data set [3] deals with Mus musculus. Description: Antipsychotic activity in mouse at 3 to 30 mg/kg, ip dosed 15 mins prior to testing by SmartCube automated system based method relative to standard compound. It counts as functional, organism-based.
Data set [4] has as its system Mus musculus. Description: Antipsychotic activity in mouse at 30 mg/kg, ip administered 15 mins prior to testing by SmartCube automated system based method relative to vehicle. It counts as functional.
The target of data set [5] is D(2) dopamine receptor (Homo sapiens) (UniProt P14416). Description: Displacement of [3H]methyl-spiperone from human recombinant D2 receptor expressed in HEK293 cells at 10 uM after 60 mins by scintillation counting analysis. Format: cell-based. Background: Displacement assays read how much labelled ligand stays bound in the presence of the test substance.
A further data set deals with CYP1A (Homo sapiens, UniProt P04798+P05177). Description: Inhibition of CYP1A in human liver microsomes assessed as reduction in ethoxyresorufin o-deethylation by fluorescence assay. The note with it: probe ethoxyresorufin (O-deethylation).
The next data set concerns the target Cytochrome P450 2C19 (Homo sapiens, UniProt P33261). In words: Inhibition of CYP2C19 in human liver microsomes assessed as reduction in S-mephenytoin 4-hydroxylation by LC-MS/MS analysis. It counts as ADME. (In general: Liver microsomes are vesicles of endoplasmic reticulum, rich in cytochrome P450 enzymes.)
For a further data set, the target named is Cytochrome P450 2C9 (Homo sapiens, UniProt P11712). In words: Inhibition of CYP2C9 in human liver microsomes assessed as reduction in tolbutamide 4-hydroxylation by LC-MS/MS analysis. It counts as ADME.
A further data set addresses Cytochrome P450 2D6 (Homo sapiens, UniProt P10635). In words: Inhibition of CYP2D6 in human liver microsomes assessed as reduction in dextromethorphan o-demethylation by LC-MS/MS analysis. Format: ADME.
A further data set deals with Cytochrome P450 3A4 (Homo sapiens, UniProt P08684). In words: Inhibition of CYP3A4 in human liver microsomes assessed as reduction in midazolam 1-hydroxylation/testosterone 6beta-hydroxylation by LC-MS/MS analysis. Format: ADME.
A short description of data set [6]: Protein binding in mouse plasma at 5 uM by LC-MS/MS based equilibrium dialysis method. It counts as ADME, cell-free. The note with it: read-out: PPB (converted). Background: In equilibrium dialysis free small molecules cross a membrane that holds back macromolecules.
Data set [7] is described as follows: Protein binding in rat plasma at 5 uM by LC-MS/MS based equilibrium dialysis method. The note with it: read-out: PPB (converted). It counts as ADME, cell-free.
Data set [8] is described as follows: Half life in human liver microsomes at 3 uM in presence of NADPH by LC-MS/MS analysis. Format: ADME.
Data set [9] can be described thus: Half life in mouse liver microsomes at 3 uM in presence of NADPH by LC-MS/MS analysis. It counts as ADME.
A short description of data set [10]: Half life in rat liver microsomes at 3 uM in presence of NADPH by LC-MS/MS analysis. Format: ADME.
Data set [11] deals with Voltage-gated inwardly rectifying potassium channel KCNH2 (Homo sapiens, UniProt Q12809). Description: Inhibition of human ERG. The conditions noted are these: read-out: IC50.
Chain of Voltage-gated inwardly rectifying potassium channel KCNH2 (Q12809 whole entry): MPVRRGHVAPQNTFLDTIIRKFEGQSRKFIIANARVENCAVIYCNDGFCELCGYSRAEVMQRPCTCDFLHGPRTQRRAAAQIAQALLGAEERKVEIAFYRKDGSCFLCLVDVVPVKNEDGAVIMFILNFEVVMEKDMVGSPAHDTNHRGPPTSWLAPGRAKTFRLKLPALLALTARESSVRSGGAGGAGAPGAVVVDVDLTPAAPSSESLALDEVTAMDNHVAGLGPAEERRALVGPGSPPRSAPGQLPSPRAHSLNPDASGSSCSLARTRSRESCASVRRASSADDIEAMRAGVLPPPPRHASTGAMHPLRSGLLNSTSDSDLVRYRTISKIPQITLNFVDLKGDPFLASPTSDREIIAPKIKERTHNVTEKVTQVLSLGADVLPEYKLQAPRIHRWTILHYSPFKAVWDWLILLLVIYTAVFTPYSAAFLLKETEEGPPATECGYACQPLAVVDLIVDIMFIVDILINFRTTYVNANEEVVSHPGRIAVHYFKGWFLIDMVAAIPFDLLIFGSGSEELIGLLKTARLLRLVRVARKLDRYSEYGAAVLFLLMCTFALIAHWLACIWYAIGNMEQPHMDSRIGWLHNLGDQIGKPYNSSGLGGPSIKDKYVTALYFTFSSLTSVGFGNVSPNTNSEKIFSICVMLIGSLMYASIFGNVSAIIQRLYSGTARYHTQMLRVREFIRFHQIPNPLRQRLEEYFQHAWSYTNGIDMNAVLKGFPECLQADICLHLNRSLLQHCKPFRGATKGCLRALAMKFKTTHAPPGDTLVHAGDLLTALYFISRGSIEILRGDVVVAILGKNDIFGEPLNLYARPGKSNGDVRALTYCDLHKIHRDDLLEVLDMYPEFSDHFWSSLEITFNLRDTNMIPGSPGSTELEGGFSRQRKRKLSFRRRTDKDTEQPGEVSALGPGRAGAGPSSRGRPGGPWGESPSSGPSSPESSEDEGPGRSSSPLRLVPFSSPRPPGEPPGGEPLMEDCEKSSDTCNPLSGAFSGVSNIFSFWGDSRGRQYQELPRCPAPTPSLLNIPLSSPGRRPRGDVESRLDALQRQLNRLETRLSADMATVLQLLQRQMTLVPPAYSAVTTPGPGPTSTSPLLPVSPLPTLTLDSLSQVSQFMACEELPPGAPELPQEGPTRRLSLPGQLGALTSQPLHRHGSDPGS

Chain of D(2) dopamine receptor (Homo sapiens) (P14416 whole entry): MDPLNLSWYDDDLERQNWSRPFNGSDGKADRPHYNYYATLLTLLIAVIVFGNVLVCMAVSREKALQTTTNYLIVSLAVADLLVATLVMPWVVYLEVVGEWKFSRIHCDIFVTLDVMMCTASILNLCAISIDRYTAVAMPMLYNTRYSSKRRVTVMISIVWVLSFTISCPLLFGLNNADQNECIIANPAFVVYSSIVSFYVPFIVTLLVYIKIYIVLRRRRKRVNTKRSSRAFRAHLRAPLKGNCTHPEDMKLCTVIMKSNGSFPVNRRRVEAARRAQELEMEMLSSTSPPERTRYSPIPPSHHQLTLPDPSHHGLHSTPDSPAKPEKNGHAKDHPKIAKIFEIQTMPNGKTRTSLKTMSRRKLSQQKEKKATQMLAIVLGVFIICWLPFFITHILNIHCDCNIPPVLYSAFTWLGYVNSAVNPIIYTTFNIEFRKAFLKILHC
Chain of Cytochrome P450 2D6 (P10635 whole entry): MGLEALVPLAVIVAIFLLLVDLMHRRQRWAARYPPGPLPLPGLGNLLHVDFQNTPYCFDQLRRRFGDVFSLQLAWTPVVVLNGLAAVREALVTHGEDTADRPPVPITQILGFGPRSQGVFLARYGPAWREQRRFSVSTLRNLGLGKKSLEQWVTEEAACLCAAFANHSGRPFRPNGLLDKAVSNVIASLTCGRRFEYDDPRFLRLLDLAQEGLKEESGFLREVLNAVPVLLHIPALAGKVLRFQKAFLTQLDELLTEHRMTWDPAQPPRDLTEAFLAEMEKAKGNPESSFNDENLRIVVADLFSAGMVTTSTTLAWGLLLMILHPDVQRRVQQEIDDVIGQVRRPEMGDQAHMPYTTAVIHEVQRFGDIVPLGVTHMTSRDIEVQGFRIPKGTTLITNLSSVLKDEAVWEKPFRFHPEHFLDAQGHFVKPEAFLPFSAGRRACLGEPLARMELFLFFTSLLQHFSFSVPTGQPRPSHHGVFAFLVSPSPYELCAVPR
Chain of Cytochrome P450 2C9 (P11712 whole entry): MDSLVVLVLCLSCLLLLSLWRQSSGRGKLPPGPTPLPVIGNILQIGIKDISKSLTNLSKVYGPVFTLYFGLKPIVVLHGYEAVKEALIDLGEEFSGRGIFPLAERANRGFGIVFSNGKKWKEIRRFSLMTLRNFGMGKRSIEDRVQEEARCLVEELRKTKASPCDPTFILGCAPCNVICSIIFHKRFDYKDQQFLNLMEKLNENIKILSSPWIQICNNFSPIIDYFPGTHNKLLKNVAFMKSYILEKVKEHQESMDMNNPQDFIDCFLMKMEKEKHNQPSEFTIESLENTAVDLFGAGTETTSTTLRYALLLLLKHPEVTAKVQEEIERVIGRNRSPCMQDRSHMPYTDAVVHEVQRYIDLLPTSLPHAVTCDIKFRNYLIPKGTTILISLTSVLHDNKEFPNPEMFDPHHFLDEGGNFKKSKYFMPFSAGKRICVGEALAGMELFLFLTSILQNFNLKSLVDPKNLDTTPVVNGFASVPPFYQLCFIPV
Chain of Cytochrome P450 2C19 (P33261 whole entry): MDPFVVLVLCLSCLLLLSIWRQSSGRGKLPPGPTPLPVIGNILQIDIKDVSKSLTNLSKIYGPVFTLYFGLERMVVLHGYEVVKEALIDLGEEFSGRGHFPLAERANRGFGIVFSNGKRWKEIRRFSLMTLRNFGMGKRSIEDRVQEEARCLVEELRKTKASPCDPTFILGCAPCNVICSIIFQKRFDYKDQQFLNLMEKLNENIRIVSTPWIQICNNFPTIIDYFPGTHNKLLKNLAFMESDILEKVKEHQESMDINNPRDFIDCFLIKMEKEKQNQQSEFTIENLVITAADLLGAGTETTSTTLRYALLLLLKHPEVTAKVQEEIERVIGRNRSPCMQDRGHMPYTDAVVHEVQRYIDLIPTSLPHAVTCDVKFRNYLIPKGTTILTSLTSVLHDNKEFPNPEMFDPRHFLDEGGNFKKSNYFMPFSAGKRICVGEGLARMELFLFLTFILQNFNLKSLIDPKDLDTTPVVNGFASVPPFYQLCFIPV
Chain of Cytochrome P450 3A4 (P08684 whole entry): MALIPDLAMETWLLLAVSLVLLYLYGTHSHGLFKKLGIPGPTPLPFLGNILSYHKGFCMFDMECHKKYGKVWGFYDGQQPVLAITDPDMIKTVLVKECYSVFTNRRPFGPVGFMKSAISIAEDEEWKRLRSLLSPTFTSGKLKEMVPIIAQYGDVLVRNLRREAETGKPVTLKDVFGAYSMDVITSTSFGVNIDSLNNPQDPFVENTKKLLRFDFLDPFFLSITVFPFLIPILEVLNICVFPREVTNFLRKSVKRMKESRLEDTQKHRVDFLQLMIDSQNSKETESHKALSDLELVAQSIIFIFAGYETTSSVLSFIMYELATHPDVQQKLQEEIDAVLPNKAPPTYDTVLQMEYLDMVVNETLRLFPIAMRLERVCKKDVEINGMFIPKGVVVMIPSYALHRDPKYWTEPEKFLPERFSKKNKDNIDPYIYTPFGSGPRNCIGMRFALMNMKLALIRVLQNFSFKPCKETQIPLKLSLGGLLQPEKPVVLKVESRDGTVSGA

In the case of `CCc1ccc(C2C=CN=CN2)s1.Cl` (centres undefined), in the data set with Mus musculus [1], the minimal effective dose came to 10 mg/kg. Same read-out and setting: as for `Cc1sc2c(c1C1C=CN=CN1)CCC2.Cl` (centres undefined), the figure is 10 mg/kg. `Cc1csc(C2C=CN=CN2)c1C.Cl` (stereo in doubt; 12b): the MED in the data set on Mus musculus [1] was 30 mg/kg. `CCc1cc(Br)c(C2C=CN=CN2)s1.Cl` (centres undefined): the minimal effective dose in the data set on Mus musculus [1] came out at 30 mg/kg. In the case of `Clc1c(C2C=CN=CN2)sc2ccccc12` (centres undefined), in the data set with Mus musculus [2], the result was Active. As to `Cl.Fc1ccc(-c2ccc(C3C=CN=CN3)s2)cc1` (centres undefined), the minimal effective dose with Mus musculus [1] was determined as 3 mg/kg. With `CC1=NC=C(Cl)C(c2sc3ccccc3c2C)N1` (centres undefined), the outcome with Mus musculus [2] was Active. Regarding `Cc1sc2ccccc2c1C1C=CN=CN1C.Cl` (centres undefined), in the data set on Mus musculus [1], the minimal effective dose came to 30 mg/kg. `Cc1sc2ccccc2c1C1NC=Nc2cc(F)ccc21.Cl` (centres undefined): the minimal effective dose in the data set on Mus musculus [1] was determined as 30 mg/kg. Consider `Cc1sc2cc(Cl)ccc2c1C1C=CN=CN1.Cl` (centres undefined), for which the minimal effective dose in the data set with Mus musculus [1] was determined as 30 mg/kg. With `Cc1csc(C2C=CN=CN2)c1C` (stereo in doubt; 12a), in the data set on Mus musculus [3], the outcome was Active.

On to `CC1=CN=CNC1c1sc2ccccc2c1C` (centres undefined), for which the result in the data set with Mus musculus [2] was Active. What is called IC50 is the midpoint of a concentration-inhibition curve. As usually defined, the half-life is the time in which the quantity being followed falls by half. `Cc1cc(C2C=CN=CN2)c(C)s1.Cl` (racemic): the Activity in the data set on Mus musculus [4] is given as >95%; in the data set with Mus musculus [2], 40%. Besides, the inhibition result in [5] was “inactive”. Further, the IC50 is > 25 µM at CYP1A; 12.7 µM on Cytochrome P450 2C19; > 25 µM at Cytochrome P450 2C9; 6.3 µM at Cytochrome P450 2D6; 19.8 µM on Cytochrome P450 3A4; > 25 µM in data set [11]. Moreover, the fraction unbound at 5 µM was 0.24 in [6] and 0.3 in [7]. Besides, the half-life at 3 µM was 48 min in [8], 155 min in [9] and 39 min in data set [10]. `Brc1c(C2C=CN=CN2)sc2ccccc12` (centres undefined): the result in the data set with Mus musculus [2] was Active. Regarding `CC1=CN=CNC1c1c(C)sc2ccccc12.Cl` (centres undefined), the minimal effective dose in the data set on Mus musculus [1] came to 30 mg/kg. Take `Cc1csc(-c2ccncn2)c1C`: the outcome with Mus musculus [3] was Active.
